Source: patent publication US7317115B2, “Mandelates salts of substituted tetracyclic tetrahydrofuran derivatives” (Janssen Pharmaceutica, N.V., priority 2001, dated 2008)
“Also recorded” adds a separate entry of the source.

Legend:
Type in all cases: physicochemical
[1] = Chemical stability (HPLC and visual inspection after storage); settings: for HPLC Sum of impurities: in % (unit assumed)
Procedure: In the chemical stability test program the salts are stored for periods of 2, 4 and 8 weeks under different conditions. These conditions are 40° C./75% RH, 50° C., daylight, RT/5% RH, RT/75% RH, 25° C./60% RH and artificial light. The mandelate salt and the ditoluoyltartrate salt are also stored 8 hours in 0.3 da ICH light. The compounds are analyzed after storage by HPLC and by visual inspection.

[2] = Crystallographic stability (TGA, DSC, IR after storage); as to IR: key: ~Ref: identical with reference
Procedure: The stability of the crystal structure of the salt is studied after storage of the compounds for a period of two weeks at room temperature (RT) under either 5%, 75% and 25° C./60% relative humidity (RH). The samples are analyzed with thermogravimetry (TGA), differential scanning calorimetry (DSC) and infrared spectroscopy (IR).

[3] = Adsorption and desorption of water; settings: 25° C., different relative humidity; listed as tartrate salt
Procedure: The adsorption and desorption of water at 25° C. at different conditions of relative humidity is investigated on an amount of ±10 mg of each salt. The weight change as a function of relative humidity is registered.

Appearance ([1]; 25° C./60% RH, 4 weeks): white
HPLC Sum of impurities ([1]; 25° C./60% RH, 4 weeks): 0.75
Appearance ([1]; 25° C./60% RH, 8 weeks): white
HPLC Sum of impurities ([1]; 25° C./60% RH, 8 weeks): 0.77
Appearance ([1]; 40° C./75% RH, 2 weeks): white
HPLC Sum of impurities ([1]; 40° C./75% RH, 2 weeks): 0.72
Appearance ([1]; 40° C./75% RH, 4 weeks): white
HPLC Sum of impurities ([1]; 40° C./75% RH, 4 weeks): 0.83
Appearance ([1]; 40° C./75% RH, 8 weeks): almost white
HPLC Sum of impurities ([1]; 40° C./75% RH, 8 weeks): 0.93
Appearance ([1]; 50° C., 2 weeks): white
HPLC Sum of impurities ([1]; 50° C., 2 weeks): 0.72
Appearance ([1]; 50° C., 4 weeks): white
HPLC Sum of impurities ([1]; 50° C., 4 weeks): 0.77
Appearance ([1]; 50° C., 8 weeks): almost white
HPLC Sum of impurities ([1]; 50° C., 8 weeks): 0.79
Appearance ([1]; Artificial light (2 weeks)): white
HPLC Sum of impurities ([1]; Artificial light (2 weeks)): 0.79
Appearance ([1]; Daylight, 2 weeks): white
HPLC Sum of impurities ([1]; Daylight, 2 weeks): 0.75
Appearance ([1]; Daylight, 4 weeks): almost
HPLC Sum of impurities ([1]; Daylight, 4 weeks): 0.85
Appearance ([1]; Daylight, 8 weeks): slightly
HPLC Sum of impurities ([1]; Daylight, 8 weeks): 0.91
Appearance ([1]; RT/75% RH, 4 weeks): white
HPLC Sum of impurities ([1]; RT/75% RH, 4 weeks): 0.72
Appearance ([1]; RT/75% RH, 8 weeks): white
HPLC Sum of impurities ([1]; RT/75% RH, 8 weeks): 0.80
Appearance ([1]; RT/<5% RH, 4 weeks): white
HPLC Sum of impurities ([1]; RT/<5% RH, 4 weeks): 0.73
Appearance ([1]; RT/<5% RH, 8 weeks): white
HPLC Sum of impurities ([1]; RT/<5% RH, 8 weeks): 0.75
Appearance ([1]; Reference (2 weeks)): white
HPLC Sum of impurities ([1]; Reference (2 weeks)): 0.72
Appearance ([2]; 0 days): white
DSC Max ([2]; 0 days): 158.8 °C
DSC ΔH ([2]; 0 days): 85.9 J/g
TGA <100° C. ([2]; 0 days): 0%
Appearance ([2]; two weeks, RT/56% RH): white
DSC Max ([2]; two weeks, RT/56% RH): 159.0 °C
DSC ΔH ([2]; two weeks, RT/56% RH): 86.2 J/g
IR ([2]; two weeks, RT/56% RH): ~Ref
TGA <100° C. ([2]; two weeks, RT/56% RH): 0.1%
Appearance ([2]; two weeks, RT/75% RH): white
DSC Max ([2]; two weeks, RT/75% RH): 159.0 °C
DSC ΔH ([2]; two weeks, RT/75% RH): 85.5 J/g
TGA <100° C. ([2]; two weeks, RT/75% RH): 0%
Appearance ([2]; two weeks, RT/<5% RH): white
DSC Max ([2]; two weeks, RT/<5% RH): 160.3 °C
DSC ΔH ([2]; two weeks, RT/<5% RH): 86.4 J/g
TGA <100° C. ([2]; two weeks, RT/<5% RH): 0%
Substance: B-(2α,3aα,12bβ)-11-fluoro-3,3a,8,12b-tetrahydro-N-methyl-2H-dibenzo-[3,4:6,7]cyclohepta[1,2-b]furan-2 methanamine [Tartrate]
chemical stability ([1]; storage 2, 4 and 8 weeks under different conditions, listed as tartrate salt): showed a sensitivity towards 40° C./70% RH and light; also recorded: shows sensitivity towards higher humidities and light
crystallographic stability ([2]; storage two weeks under different relative humidities, listed as tartrate salt): crystallographic stable; also recorded: crystallographically stable
water adsorption/desorption behaviour (weight change as a function of relative humidity) [3]: less stable but the weight change as a function of the relative humidity is very small; also recorded: good adsorption desorption profile
